Data as given in patent US11076597B2, “High stress resistant plant growth regulator and preparation method and use thereof” (SHANGHAI INSTITUTES FOR BIOLOGICAL SCIENCES, CHINESE …, priority 2015, dated 2021).
“Also recorded” adds a separate entry of the source.

How the values were obtained:
[1] = test system: Arabidopsis thaliana Col-0 ecotype; assay: Soil drought experiment, Arabidopsis; format: in vivo; details: for growth after drought: 5 μM spray, two weeks after the drought, FIG. 12; for survival/growth after drought: 5 μM sprayed once every week, twice in total, four weeks of drought, FIG. 7
Method: Seeds of Arabidopsis Col-0 ecotype were sterilized with NaClO and then sown on ½ MS solid medium at 4° C. for 3 days of vernalization. After 6 days of growing, the well-grown seedlings having uniform size were selected and transferred into 8×7×6 cm^3 pots. Each pot was filled with the same weight of soil and same number of plants (six plants) was transferred to reduce experimental error. All the pots were subjected to a short-day culture at 22° C. After two weeks, watering was stopped for drought treatment. A solution containing 0.05% Tween-20 and 5 μM 0224/0706/0715/0428 or 0.05% Tween-20 and 0.05% DMSO (control) was sprayed onto the leaf surface once per week with a spray amount of 2 ml solution/pot. The position of the flowerpot was changed every day during the process of drought to reduce the error caused by environmental factors. During the whole drought period, the solution was sprayed twice in total and photos were recorded after four weeks.
Arabidopsis thaliana Col-0 ecotype that had been growing in the soil for two weeks was stopped watering, the leaf was sprayed with a solution containing 5 μM compound 0224/0706/0715 or 0.05% DMSO (control) once every week during the drought, with a spray amount of 2 ml solution/pot, twice in total and a 0.05% (v/v) surfactant Tween-20 was added to the solution to enhance the penetrating effect of the spray agent on the leaf epidermis. […] The same method was performed for drought treatment and (+)-ABA or 0428-treated Arabidopsis was photographed two weeks after the drought.

[2] = biological target: T1, PYL2 receptor-HAB1 protein phosphatase complex (Arabidopsis thaliana, UniProt O80992); assay: AlphaScreen assay, PYL2 receptor binding to HAB1; format: biochemical; details: fraction of the EC50 of ABA; FIG. 2c, 2e-2g
T1 construct: made in house; host or cells: E. coli BL21 (DE3)
T1 sequence (O80992 14-188): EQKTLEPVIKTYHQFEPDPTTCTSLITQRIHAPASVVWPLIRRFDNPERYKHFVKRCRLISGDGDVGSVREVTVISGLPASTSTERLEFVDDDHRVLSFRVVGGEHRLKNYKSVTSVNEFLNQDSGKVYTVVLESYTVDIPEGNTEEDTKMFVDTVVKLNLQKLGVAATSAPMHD
T1 sequence (Q9CAJ0 172-511 partner limits assumed): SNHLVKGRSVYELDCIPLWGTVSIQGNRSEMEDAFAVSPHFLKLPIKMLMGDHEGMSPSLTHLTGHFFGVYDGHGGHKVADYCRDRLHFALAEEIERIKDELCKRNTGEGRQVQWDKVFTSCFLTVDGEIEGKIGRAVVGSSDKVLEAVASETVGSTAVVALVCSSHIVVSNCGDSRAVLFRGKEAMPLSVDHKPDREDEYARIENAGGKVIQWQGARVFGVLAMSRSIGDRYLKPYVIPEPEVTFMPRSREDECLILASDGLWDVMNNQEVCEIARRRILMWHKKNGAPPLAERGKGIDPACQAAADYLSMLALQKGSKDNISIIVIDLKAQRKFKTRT
Method: The AlphaScreen kit (available from Perkin Elmer) was used, and the method was as follows: a 10× buffer (50 mM MOPS, pH 7.4, 50 mM NaF, 50 mM CHAPS, 0.1 mg/ml bovine serum albumin) diluted at 1:10, each of 100 nM HAB1 with Biotin tag sequence and PYR1/PYL1/PYL2/PYL7/GmPYL6/OsPYL2 protein with dual tags of 6×His and SUMO sequences, corresponding concentrations of (+)-ABA/0224/0304/0706/0708/0713/0715/0428/NC0F4, and 5 μg/ml donor beads and acceptor beads (available from Perkin Elmer) were contained in 150 μl of experimental system. After incubating for 1.5 hours at room temperature in the dark, it was placed into an Envision Plate Reader (available from Perkin Elmer) under the programmed AlphaScreen procedure for readings.
AlphaScreen technology was used to test the ability of the compounds of the present invention to promote PYL receptor binding to PP2C protein phosphatase (HAB1).

Row | SMILES | growth after drought [1] | EC50 value with PYL2 receptor-HAB1 complex as fraction of that of ABA [2] | survival/growth after drought [1]
1 | CC1=CC(=O)CC(C)(C)[C@@]1(O)/C=C/C(C)=C\C(=O)O [ABA, Abscisic Acid, reference compound] | had no difference from that of plants in the DMSO-sprayed control group | – | –
2 | CCCN1C(=O)OC(C)c2cc(NS(=O)(=O)Cc3c(F)c(F)c(C)c(F)c3F)ccc21 (stereo not shown) [Compound 0224] | – | 1/29 | still grows normally; also recorded: still survived
3 | CCCN1C(=O)OC(C)(C)c2cc(NS(=O)(=O)Cc3c(F)c(F)c(C)c(F)c3F)ccc21 [Compound 0304] | – | 1/15 | –
4 | CCCN1C(=O)OCc2cc(NS(=O)(=O)Cc3c(F)c(F)c(C)c(F)c3F)ccc21 [Compound 0428] | exhibits a better growth condition than that in the control group and that sprayed with ABA; also recorded: significantly better than that of plants in DMSO-sprayed control group and plants sprayed with 5 μM (+)-ABA | about ⅛ | –
5 | CCN1C(=O)OC(C)c2cc(NS(=O)(=O)Cc3c(F)c(F)c(C)c(F)c3F)ccc21 (stereo not shown) [Compound 0706] | – | ⅕-⅛ | still grows normally; also recorded: still survived
6 | Cc1c(F)c(F)c(CS(=O)(=O)Nc2ccc3c(c2)C(C)OC(=O)N3CCCF)c(F)c1F (stereo not shown) [Compound 0715] | – | ⅕-⅛ | still grows normally; also recorded: still survived
